# Measured values published in publication PMC1310925, “Organotins Disrupt the 11β-Hydroxysteroid Dehydrogenase Type 2–Dependent Local Inactivation of Glucocorticoids” (Environmental Health Perspectives, 2005).
# Tests used:
# [1] = target: T1, 11β-HSD2 (Homo sapiens, UniProt P80365); test: 11β-HSD2 activity in lysates of stably transfected HEK-293 cells (cortisol to cortisone); assay type: biochemical; set-up: expressed in transfected cells; host or cells: HEK-293, stably transfected; conditions: for Vmax of 11β-HSD2 in presence of inhibitor: control 2.14 ± 0.32
# T1 sequence (P80365 1-405): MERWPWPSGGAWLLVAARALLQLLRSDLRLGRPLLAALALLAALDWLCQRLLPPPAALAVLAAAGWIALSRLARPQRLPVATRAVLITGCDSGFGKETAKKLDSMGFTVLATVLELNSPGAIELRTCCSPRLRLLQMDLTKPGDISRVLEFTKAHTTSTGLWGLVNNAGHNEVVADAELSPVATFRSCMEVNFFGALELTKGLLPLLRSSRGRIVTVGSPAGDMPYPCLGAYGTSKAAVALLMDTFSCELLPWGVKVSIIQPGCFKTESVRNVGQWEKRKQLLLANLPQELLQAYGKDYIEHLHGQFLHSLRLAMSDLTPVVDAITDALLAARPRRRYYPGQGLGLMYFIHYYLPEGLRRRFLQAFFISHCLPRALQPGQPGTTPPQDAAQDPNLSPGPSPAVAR
# Experimental: Cells were rinsed 3 times with phosphate-buffered saline (PBS) and resuspended in 2 mL ice-cold buffer TS2 (100 mM NaCl, 1 mM EGTA, 1 mM EDTA, 1 mM MgCl2, 250 mM sucrose, 20 mM Tris-HCl, pH 7.4). Aliquots of the cell suspension were frozen at −20°C, retaining full enzymatic activity for at least 3 months. For determinationof 11β-HSD2 activity, aliquots were thawed, sonicated, and diluted 1:12 in buffer TS2 (4°C). We carried out reactions in a final volume of 20 μL containing 10 nCi [1,2,6,7-^3H]-cortisol, 400-μM NAD^+, and different concentrations of unlabeled cortisol. […] Incubations were for 10 min at 37°C.
# [2] = target: T1, 11β-HSD2; test: 11β-HSD2 activity in intact stably transfected HEK-293 cells; assay type: cell-based; set-up: expressed in transfected cells; host or cells: HEK-293, stably transfected; conditions: for IC50: HEK-293 stably transfected, 40 nM cortisol, 2 hr; for 11β-HSD2 activity in intact cells, compound alone: concentrations 50% below their IC50 value
# [3] = ref McVey and Cooke 2003; cited from earlier work
# [4] = target: 11β-HSD2 Cys^48Ser (Homo sapiens, UniProt P80365, C48S); conditions: read-out: TBT IC50 ± SD, Cys^48Ser; mutant Cys^48Ser, lysate
# Chain of 11β-HSD2 Cys^48Ser (P80365 whole entry C48S): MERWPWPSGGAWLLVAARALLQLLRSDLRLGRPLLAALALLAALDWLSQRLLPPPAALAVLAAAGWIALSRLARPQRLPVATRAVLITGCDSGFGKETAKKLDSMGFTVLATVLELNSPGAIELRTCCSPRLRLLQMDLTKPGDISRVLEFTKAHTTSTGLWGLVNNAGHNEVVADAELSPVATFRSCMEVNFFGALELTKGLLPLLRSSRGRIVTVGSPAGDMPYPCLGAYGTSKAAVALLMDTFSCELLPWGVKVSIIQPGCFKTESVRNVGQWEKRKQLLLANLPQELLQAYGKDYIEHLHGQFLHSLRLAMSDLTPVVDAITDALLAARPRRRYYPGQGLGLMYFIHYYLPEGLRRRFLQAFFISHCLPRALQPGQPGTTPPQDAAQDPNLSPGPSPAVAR
# Experimental: (§1) Cells were rinsed 3 times with phosphate-buffered saline (PBS) and resuspended in 2 mL ice-cold buffer TS2 (100 mM NaCl, 1 mM EGTA, 1 mM EDTA, 1 mM MgCl2, 250 mM sucrose, 20 mM Tris-HCl, pH 7.4). […] For determinationof 11β-HSD2 activity, aliquots were thawed, sonicated, and diluted 1:12 in buffer TS2 (4°C). We carried out reactions in a final volume of 20 μL containing 10 nCi [1,2,6,7-^3H]-cortisol, 400-μM NAD^+, and different concentrations of unlabeled cortisol. […] Incubations were for 10 min at 37°C.
# (§2) All constructs were verified by sequencing and recloned into pcDNA3 expression vector. Wild-type and mutant enzymes were expressed in HEK-293 cells, lysates were prepared, and proteins were separated by sodium dodecyl sulfate (SDS) gel electrophoresis. Proteins were transferred to nitrocellulose, and expression levels of 11β-HSD2 constructs were detected using mouse monoclonal antibody M2 raised against the FLAG epitope and visualized with a horseradish peroxidase conjugated anti-mouse antibody and enhanced chemiluminescence Western kit (Pierce, Rockford, IL, USA). After detection of 11β-HSD2 constructs, nitrocellulose membranes were stripped and incubated with rabbit polyclonal anti-actin IgG (Santa Cruz Biotechnology Inc., Santa Cruz, CA, USA) and horseradish peroxidase–conjugated goat anti-rabbit IgG to adjust for the amount of proteins loaded on the gel. The expression of mutant relative to wild-type enzyme was adjusted for calculation of kinetic parameters.
# [5] = target: 11β-HSD2 Cys^264Ser (Homo sapiens, UniProt P80365, C264S); conditions: lysate
# Chain of 11β-HSD2 Cys^264Ser (P80365 whole entry C264S): as the sequence (P80365 whole entry C48S) above, with S48C, C264S counted along it
# Experimental: as §1, §2
# [6] = target: 11β-HSD2 Cys^188Ser (Homo sapiens, UniProt P80365, C188S); conditions: read-out: TBT IC50 ± SD, Cys^188Ser; mutant Cys^188Ser, lysate
# Chain of 11β-HSD2 Cys^188Ser (P80365 whole entry C188S): as the sequence (P80365 whole entry C48S) above, with S48C, C188S counted along it
# Experimental: as §1, §2
# [7] = target: 11β-HSD2 Cys^127Ser (Homo sapiens, UniProt P80365, C127S); conditions: read-out: TBT IC50 ± SD, Cys^127Ser; mutant Cys^127Ser, lysate
# Chain of 11β-HSD2 Cys^127Ser (P80365 whole entry C127S): as the sequence (P80365 whole entry C48S) above, with S48C, C127S counted along it
# Experimental: as §1, §2
# [8] = target: 11β-HSD2 Cys^128Ser (Homo sapiens, UniProt P80365, C128S); conditions: read-out: TBT IC50 ± SD, Cys^128Ser; mutant Cys^128Ser, lysate
# Chain of 11β-HSD2 Cys^128Ser (P80365 whole entry C128S): as the sequence (P80365 whole entry C48S) above, with S48C, C128S counted along it
# Experimental: as §1, §2
# [9] = target: 11β-HSD2 Cys^248Ser (Homo sapiens, UniProt P80365, C248S); conditions: read-out: TBT IC50 ± SD, Cys^248Ser; mutant Cys^248Ser, lysate
# Chain of 11β-HSD2 Cys^248Ser (P80365 whole entry C248S): as the sequence (P80365 whole entry C48S) above, with S48C, C248S counted along it
# Experimental: as §1, §2
# [10] = target: 11β-HSD2 Cys^371Ser (Homo sapiens, UniProt P80365, C371S); conditions: read-out: TBT IC50 ± SD, Cys^371Ser; mutant Cys^371Ser, lysate
# Chain of 11β-HSD2 Cys^371Ser (P80365 whole entry C371S): as the sequence (P80365 whole entry C48S) above, with S48C, C371S counted along it
# Experimental: as §1, §2
# [11] = target: T2, 17β-HSD2 (Homo sapiens, UniProt P37059); test: 17β-HSD2 activity in cell lysates (estradiol to estrone); assay type: biochemical; conditions: for IC50: lysates of transfected HEK-293 cells, 200 nM estradiol, NAD+, read-out: IC50 17β-HSD2, cell lysate
# T2 construct: expressed in transfected cells; host or cells: HEK-293, calcium-phosphate transfection, lysate
# T2 sequence (P37059 1-387): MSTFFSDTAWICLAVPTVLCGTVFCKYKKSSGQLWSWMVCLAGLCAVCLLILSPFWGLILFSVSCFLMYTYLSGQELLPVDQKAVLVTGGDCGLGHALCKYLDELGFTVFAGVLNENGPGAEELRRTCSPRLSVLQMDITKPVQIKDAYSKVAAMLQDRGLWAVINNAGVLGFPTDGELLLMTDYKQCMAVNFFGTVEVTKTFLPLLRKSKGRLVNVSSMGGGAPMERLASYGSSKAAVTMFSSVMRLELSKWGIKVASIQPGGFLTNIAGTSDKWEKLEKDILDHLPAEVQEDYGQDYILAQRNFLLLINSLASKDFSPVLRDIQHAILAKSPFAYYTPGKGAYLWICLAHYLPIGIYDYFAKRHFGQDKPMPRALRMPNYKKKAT
# Experimental: (§3) For determination of 11β-HSD1, 17β-HSD1, and 17β-HSD2 activity, HEK-293 cells transfected by the calcium-phosphate precipitation method were harvested 48 hr later, washed with PBS, and centrifuged for 3 min at 150 × g. Supernatants were removed, cell pellets quick-frozen in a dry ice ethanol bath, and stored at −70°C. For assaying 11β-HSD1, we dissolved pellets in TS2 buffer; for 17β-HSD1 or 17β-HSD2, we used a buffer containing 50 mM potassium phosphate, 20% glycerol, and 1 mM EDTA. We measured 11β-HSD1 oxoreductase activity as described recently ([Atanasov et al. 2004]), using radiolabeled cortisone as substrate. 17β-HSD1 and 17β-HSD2 activities were measured in the presence of radiolabeled estrone or estradiol and unlabeled steroid at final concentrations of 200 nM and 500 μM NADPH or NAD^+, respectively.
# [12] = target: T3, 17β-HSD1 (Homo sapiens, UniProt P14061); test: 17β-HSD1 activity in cell lysates (estrone to estradiol); assay type: biochemical; conditions: for inhibition of 17β-HSD1: lysate; for IC50: lysates of transfected HEK-293 cells, 200 nM estrone, NADPH, read-out: IC50 17β-HSD1, cell lysate
# T3 construct: expressed in transfected cells; host or cells: HEK-293, calcium-phosphate transfection, lysate
# T3 sequence (P14061 1-328): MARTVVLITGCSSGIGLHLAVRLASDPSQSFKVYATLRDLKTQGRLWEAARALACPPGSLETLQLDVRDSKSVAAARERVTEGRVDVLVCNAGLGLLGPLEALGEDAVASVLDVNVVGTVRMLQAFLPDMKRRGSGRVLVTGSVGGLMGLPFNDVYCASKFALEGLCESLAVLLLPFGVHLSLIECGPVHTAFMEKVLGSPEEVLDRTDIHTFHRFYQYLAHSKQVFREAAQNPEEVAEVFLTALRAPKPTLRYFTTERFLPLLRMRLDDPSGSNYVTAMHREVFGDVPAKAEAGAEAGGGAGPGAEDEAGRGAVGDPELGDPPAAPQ
# Experimental: as §3
# [13] = target: 11β-HSD2 (Rattus norvegicus, UniProt P50233)
# Chain of 11β-HSD2 (Rattus norvegicus, UniProt P50233) (P50233 whole entry): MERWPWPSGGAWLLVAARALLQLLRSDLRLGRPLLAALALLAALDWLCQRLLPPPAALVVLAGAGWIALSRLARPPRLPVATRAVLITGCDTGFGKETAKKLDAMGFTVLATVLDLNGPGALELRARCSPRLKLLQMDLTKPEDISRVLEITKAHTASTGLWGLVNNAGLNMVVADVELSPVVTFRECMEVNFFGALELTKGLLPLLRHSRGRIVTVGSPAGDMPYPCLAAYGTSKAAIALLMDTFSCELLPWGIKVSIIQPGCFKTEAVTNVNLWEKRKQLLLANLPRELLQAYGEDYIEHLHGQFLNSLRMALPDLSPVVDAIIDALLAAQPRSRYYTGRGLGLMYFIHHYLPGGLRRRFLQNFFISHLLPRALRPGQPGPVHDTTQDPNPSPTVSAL
# Experimental: (§4) SW-620 (human colorectal adenocarcinoma) cells and JEG-3 (human choriocarcinoma) cells were cultured according to the recommendations of the supplier (American Type Culture Collection, Manassas, VA, USA).
# (§5) HEK-293 cells stably transfected with 11β-HSD2 (25,000 cells per well) were seeded 24 hr prior to the assay in poly-D-lysine coated 96-well Biocoat plates (Becton Dickinson, Basel, Switzerland). The medium was carefully removed, followed by the addition of 30 μL fresh medium, 10 μL medium containing various concentrations of organotins, and 10 μL radiolabeled cortisol. The reaction volume was 50 μL, with a final cortisol concentration of 40 nM. The cells were incubated for 2 hr at 37°C under 5% CO2. We stopped reactions by adding an excess of unlabeled cortisone and cortisol in methanol, and separated steroids using thin-layer chromatography, followed by scintillation counting. 11β-HSD2 activity in JEG-3, SW-620, and RCCD-2 cells was measured similarly by adjusting the cell density and reaction time to obtain a maximal conversion of cortisol between 15 and 25%.
# [14] = target: T1, 11β-HSD2; conditions: endogenous enzyme, intact cells
# Experimental: as §4, §5
# [15] = target: T4, 11β-HSD1 (Homo sapiens, UniProt P28845); test: 11β-HSD1 oxoreductase activity in cell lysates (cortisone to cortisol); assay type: biochemical; conditions: for inhibition of 11β-HSD1-dependent conversion of cortisone to cortisol: concentrations up to 200 μM, lysate; for IC50: lysates of transfected HEK-293 cells, cortisone as substrate, read-out: IC50 11β-HSD1, cell lysate
# T4 construct: expressed in transfected cells; host or cells: HEK-293, calcium-phosphate transfection, lysate
# T4 sequence (P28845 whole entry): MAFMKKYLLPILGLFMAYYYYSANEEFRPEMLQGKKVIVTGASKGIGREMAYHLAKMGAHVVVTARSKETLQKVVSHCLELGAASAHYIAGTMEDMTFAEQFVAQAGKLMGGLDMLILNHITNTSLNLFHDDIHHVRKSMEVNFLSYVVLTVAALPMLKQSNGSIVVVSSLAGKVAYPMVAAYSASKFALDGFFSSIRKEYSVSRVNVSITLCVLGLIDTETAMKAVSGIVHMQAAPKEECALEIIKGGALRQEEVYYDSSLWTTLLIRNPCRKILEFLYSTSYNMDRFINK
# Experimental: as §3
# [16] = 40 nM cortisol, 400 μM NAD+, 10 min 37°C, read-out: IC50 11β-HSD2, cell lysate
smiles,measurement,setting,value
"O[C@@H](CS)[C@@H](O)CS (racemic) [DTT, dithiothreitol, reference compound]",effect on 11β-HSD2 enzymatic activity,"[1]; DTT alone, lysate",did not significantly alter enzymatic activity
"CCC[CH2][Sn][CH2]CCC [DBT, dibutyltin]",IC50,[1]; [16],1950 ± 270 nM
same,IC50,[2],5030 ± 700 nM
same,"11β-HSD2 activity in intact cells, compound alone",[2],reduced 11β-HSD2 activity only slightly
"c1cc[c]([Sn][c]2ccccc2)cc1 [DPT, diphenyltin]",IC50,[1]; [16],1420 ± 170 nM
same,IC50,[2],2890 ± 590 nM
same,"11β-HSD2 activity in intact cells, compound alone",[2],reduced 11β-HSD2 activity only slightly
"CCC[CH2][Sn]([CH2]CCC)[CH2]CCC [TBT, tributyltin]",toxic daily intake,[3],0.25 μg/kg body weight
same,IC50,[4],2110 ± 330 nM
same,increase in IC50 with Cys^264Ser versus wild-type,[5],2 fold
same,IC50,"[5]; read-out: TBT IC50 ± SD, Cys^264Ser, mutant Cys^264Ser",4200 ± 440 nM
same,IC50,[6],1950 ± 380 nM
same,IC50,[7],2230 ± 330 nM
same,IC50,[8],1870 ± 530 nM
same,IC50,[9],2070 ± 470 nM
same,IC50,[10],2170 ± 500 nM
same,IC50,[11],> 200000 nM
same,IC50,[1]; [16],1900 ± 660 nM
same,increase of apparent Km,[1]; 2 μM TBT versus control,2 fold
same,change of inhibitory effect upon preincubation,"[1]; 2 μM TBT, preincubation 5 or 10 min, lysate",the changes did not reach significance
same,Vmax of 11β-HSD2 in presence of inhibitor,[1]; 2 μM TBT,1.66 ± 0.40 nmol/h/mg
same,increase of apparent Km,[1]; 3 μM TBT versus control,3 fold
same,Vmax of 11β-HSD2 in presence of inhibitor,[1]; 3 μM TBT,1.48 ± 0.48 nmol/h/mg
same,effect of dilution of enzyme-inhibitor complex on relative inhibition,[1]; 2-fold and 4-fold dilution of the EI complex,proportional decrease of the relative inhibitory effect
same,IC50,"[1]; Table 2, wild-type enzyme, lysate, read-out: TBT IC50 ± SD, wild-type 11β-HSD2",1900 ± 460 nM
same,mode of inhibition of 11β-HSD2,[1]; from change of Km and Vmax with TBT,mixed-competitive mode of inhibition
same,inhibition of 17β-HSD1,[12],neither TBT nor TPT inhibited
same,IC50,[12],> 200000 nM
same,stronger inhibition in RCCD-2 cells than in HEK-293 cells,[13]; intact cells,approximately 2 fold
same,IC50,"[13]; read-out: IC50 11β-HSD2 in intact RCCD-2 cells, endogenous enzyme, rat renal cortical collecting duct cells",830 ± 230 nM
same,inhibition of 11β-HSD2 in SW-620 cells compared with HEK-293 cells,[14]; colon-derived,highly similar to that observed in HEK-293 cells
same,inhibition of 11β-HSD2 in JEG-3 cells compared with HEK-293 cells,[14]; placenta-derived,highly similar to that observed in HEK-293 cells
same,IC50,[2],1520 ± 430 nM
same,"11β-HSD2 activity in intact cells, compound alone",[2],reduced 11β-HSD2 activity only slightly
same,inhibition of 11β-HSD1-dependent conversion of cortisone to cortisol,[15],did not inhibit
same,IC50,[15],> 200000 nM
"c1cc[c]([Sn]([c]2ccccc2)[c]2ccccc2)cc1 [TPT, triphenyltin]",IC50 for 17β-HSD2 relative to IC50 for 11β-HSD2,[11]; lysates,6 fold
same,IC50,[11],19000 ± 3000 nM
same,IC50,[1]; [16],3190 ± 730 nM
same,inhibition of 17β-HSD1,[12],neither TBT nor TPT inhibited
same,IC50,[12],> 200000 nM
same,IC50,[2],990 ± 240 nM
same,"11β-HSD2 activity in intact cells, compound alone",[2],reduced 11β-HSD2 activity only slightly
same,inhibition of 11β-HSD1-dependent conversion of cortisone to cortisol,[15],did not inhibit
same,IC50,[15],> 200000 nM
"N[C@@H](CCC(=O)N[C@@H](CS)C(=O)NCC(=O)O)C(=O)O [glutathione, reference compound]",prevention of organotin-dependent inhibition of 11β-HSD2,[1]; not shown,not able to prevent
